Laboratory results published in PubChem BioAssay AID248 (DTP/NCI, 2004).
Where “and” joins values, the source holds several entries; their conditions need not be identical. Identical values can stand only once. Inconclusive results and toxic doses are left out.

Tested on: L1210 leukemia ip in BDF1 mice, survival T/C
Experiment: NCI In Vivo Anticancer Drug Screen. Data for tumor model L1210 Leukemia (intraperitoneal) in B6D2F1 (BDF1) mice
Details: endpoint: mean survival time, higher = longer survival
In short: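 Value reflects the ratio of survival in compound-treated mice to survival in vehicle-treated controls, with both groups carrying the same transplanted tumor.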

[1] = dose: 100.0 mg/kg/injection, schedule: Q01DX001 (ip), vehicle: saline
[2] = dose: 200.0 mg/kg/injection, schedule: Q01DX001 (ip), vehicle: saline
[3] = dose: 400.0 mg/kg/injection, schedule: Q01DX001 (ip), vehicle: saline
[4] = dose: 100.0 mg/kg/injection, schedule: Q01DX001 (ip), vehicle: carboxymethylcellulose (CMC)
[5] = dose: 200.0 mg/kg/injection, schedule: Q01DX001 (ip), vehicle: carboxymethylcellulose (CMC)
[6] = dose: 100.0 mg/kg/injection, schedule: Q04DX002 (ip), vehicle: Klucel (hydroxypropylcellulose) (HPC)
[7] = dose: 200.0 mg/kg/injection, schedule: Q04DX002 (ip), vehicle: Klucel (hydroxypropylcellulose) (HPC)
[8] = dose: 100.0 mg/kg/injection, schedule: Q01DX009 (ip), vehicle: Klucel (hydroxypropylcellulose) (HPC)
[9] = dose: 200.0 mg/kg/injection, schedule: Q01DX009 (ip), vehicle: Klucel (hydroxypropylcellulose) (HPC)
[10] = dose: 400.0 mg/kg/injection, schedule: Q01DX009 (ip), vehicle: Klucel (hydroxypropylcellulose) (HPC)
[11] = dose: 100.0 mg/kg/injection, schedule: Q01DX009 (ip), vehicle: saline with Tween-80
[12] = dose: 200.0 mg/kg/injection, schedule: Q01DX009 (ip), vehicle: saline with Tween-80
[13] = dose: 400.0 mg/kg/injection, schedule: Q01DX009 (ip), vehicle: saline with Tween-80
[14] = dose: 100.0 mg/kg/injection, schedule: Q04DX003 (ip), vehicle: Klucel (hydroxypropylcellulose) (HPC)
[15] = dose: 200.0 mg/kg/injection, schedule: Q04DX003 (ip), vehicle: Klucel (hydroxypropylcellulose) (HPC)
[16] = dose: 400.0 mg/kg/injection, schedule: Q04DX003 (ip), vehicle: Klucel (hydroxypropylcellulose) (HPC)

## CSc1nc(N)nc2c1nc(SC)n2C1OC(CO)C(O)C1O (centres undefined)
dose: 100.0 mg/kg/injection, schedule: Q01DX005 (ip), vehicle: saline
  T/C: 102 % of control
dose: 200.0 mg/kg/injection, schedule: Q01DX005 (ip), vehicle: saline
  T/C: 94 % of control

## COc1ccc(/C=N\NC(=O)CCCC(=O)N/N=C/c2ccc(OC)c(O)c2)cc1O
dose: 50.0 mg/kg/injection, schedule: Q01DX001 (ip), vehicle: saline
  T/C: 100 % of control
[1]
  T/C: 100 % of control
[2]
  T/C: 100 % of control
[3]
  T/C: 103 % of control

## CC1(C)CC(OP(=O)(OC2CC(C)(C)N(O)C(C)(C)C2)OC2CC(C)(C)N(O)C(C)(C)C2)CC(C)(C)N1O
dose: 50.0 mg/kg/injection, schedule: Q01DX001 (ip), vehicle: water
  T/C: 104 % of control
dose: 100.0 mg/kg/injection, schedule: Q01DX001 (ip), vehicle: water
  T/C: 94 % of control and 97 % of control
dose: 200.0 mg/kg/injection, schedule: Q01DX001 (ip), vehicle: water
  T/C: 103 % of control
dose: 400.0 mg/kg/injection, schedule: Q01DX001 (ip), vehicle: water
  T/C: 113 % of control

## CC(O)c1cccnc1 (centres undefined)
dose: 10.0 mg/kg/injection, schedule: Q01DX009 (ip), vehicle: saline
  T/C: 99 % of control
dose: 10.0 mg/kg/injection, schedule: Q04DX003 (ip), vehicle: saline
  T/C: 97 % of control
dose: 20.0 mg/kg/injection, schedule: Q01DX009 (ip), vehicle: saline
  T/C: 99 % of control
dose: 20.0 mg/kg/injection, schedule: Q04DX003 (ip), vehicle: saline
  T/C: 105 % of control
dose: 40.0 mg/kg/injection, schedule: Q01DX009 (ip), vehicle: saline
  T/C: 97 % of control
dose: 40.0 mg/kg/injection, schedule: Q04DX003 (ip), vehicle: saline
  T/C: 100 % of control

## COc1cc(-c2[o+]c3cc(O)cc(O)c3cc2OC2OC(CO)C(O)C(O)C2O)cc(OC)c1O (centres undefined)
[4]
  T/C: 92 % of control
dose: 100.0 mg/kg/injection, schedule: Q04DX003 (ip), vehicle: saline sonified
  T/C: 98 % of control
[5]
  T/C: 101 % of control
dose: 400.0 mg/kg/injection, schedule: Q01DX001 (ip), vehicle: carboxymethylcellulose (CMC)
  T/C: 100 % of control

## O=C(Nc1ccc(Cl)cc1)Nc1ncccn1
[6]
  T/C: 96 % of control
[7]
  T/C: 93 % of control
dose: 400.0 mg/kg/injection, schedule: Q04DX002 (ip), vehicle: Klucel (hydroxypropylcellulose) (HPC)
  T/C: 96 % of control

## COc1c(OC)c2c3c(c(-c4c(C)cc5c(C(C)C)c(OC)c(OC)c6c5c4OC6OC)c(C)cc3c1C(C)C)OC2OC (centres undefined)
[8]
  T/C: 102 % of control
[9]
  T/C: 102 % of control
[10]
  T/C: 107 % of control

## CC(O)CNC1CCC(C)CC1 (centres undefined)
dose: 75.0 mg/kg/injection, schedule: Q01DX001 (ip), vehicle: acid diluted with saline
  T/C: 96 % of control
dose: 150.0 mg/kg/injection, schedule: Q01DX001 (ip), vehicle: acid diluted with saline
  T/C: 100 % of control

## CCCCCCC(=O)N(CCC)CCC
[4]
  T/C: 112 % of control
dose: 100.0 mg/kg/injection, schedule: Q01DX009 (ip), vehicle: carboxymethylcellulose (CMC)
  T/C: 98 % of control and 100 % of control
dose: 100.0 mg/kg/injection, schedule: Q04DX003 (ip), vehicle: carboxymethylcellulose (CMC)
  T/C: 97 % of control
[5]
  T/C: 102 % of control
dose: 200.0 mg/kg/injection, schedule: Q01DX009 (ip), vehicle: carboxymethylcellulose (CMC)
  T/C: 97 % of control and 104 % of control
dose: 200.0 mg/kg/injection, schedule: Q04DX003 (ip), vehicle: carboxymethylcellulose (CMC)
  T/C: 98 % of control

## O=Cc1cccs1
[11]
  T/C: 104 % of control
dose: 100.0 mg/kg/injection, schedule: Q04DX002 (ip), vehicle: saline with Tween-80
  T/C: 93 % of control
[12]
  T/C: 107 % of control
dose: 200.0 mg/kg/injection, schedule: Q04DX002 (ip), vehicle: saline with Tween-80
  T/C: 100 % of control
[13]
  T/C: 118 % of control
dose: 400.0 mg/kg/injection, schedule: Q04DX002 (ip), vehicle: saline with Tween-80
  T/C: 96 % of control

## C/C(=N\N=C(N)N)c1cccc(NC(=S)Nc2cccc(/C(C)=N/N=C(N)N)c2)c1
dose: 20.0 mg/kg/injection, schedule: Q01DX005 (ip), vehicle: saline with Tween-80
  T/C: 108 % of control

## CCCCOP(=O)(OCCCC)OC(C#N)CCC (centres undefined)
[6]
  T/C: 107 % of control
[7]
  T/C: 98 % of control

## CCOC(=O)C(N)Cc1ccc(OC)c(N(CCCl)CCCl)c1 (centres undefined)
dose: 0.21 mg/kg/injection, schedule: Q01DX009 (ip), vehicle: carboxymethylcellulose (CMC)
  T/C: 112 % of control
dose: 0.32 mg/kg/injection, schedule: Q01DX009 (ip), vehicle: carboxymethylcellulose (CMC)
  T/C: 112 % of control
dose: 0.48 mg/kg/injection, schedule: Q01DX009 (ip), vehicle: carboxymethylcellulose (CMC)
  T/C: 122 % of control
dose: 0.75 mg/kg/injection, schedule: Q01DX009 (ip), vehicle: carboxymethylcellulose (CMC)
  T/C: 112 % of control
dose: 1.1 mg/kg/injection, schedule: Q01DX009 (ip), vehicle: carboxymethylcellulose (CMC)
  T/C: 154 % of control
dose: 1.5 mg/kg/injection, schedule: Q01DX001 (ip), vehicle: carboxymethylcellulose (CMC)
  T/C: 115 % of control
dose: 1.5 mg/kg/injection, schedule: Q01DX009 (ip), vehicle: carboxymethylcellulose (CMC)
  T/C: 155 % of control
dose: 1.7 mg/kg/injection, schedule: Q01DX009 (ip), vehicle: carboxymethylcellulose (CMC)
  T/C: 160 % of control
dose: 2.6 mg/kg/injection, schedule: Q01DX001 (ip), vehicle: carboxymethylcellulose (CMC)
  T/C: 119 % of control
dose: 2.6 mg/kg/injection, schedule: Q01DX009 (ip), vehicle: carboxymethylcellulose (CMC)
  T/C: 160 % of control
dose: 3.0 mg/kg/injection, schedule: Q01DX001 (ip), vehicle: carboxymethylcellulose (CMC)
  T/C: 117 % of control
dose: 3.0 mg/kg/injection, schedule: Q01DX009 (ip), vehicle: carboxymethylcellulose (CMC)
  T/C: 121 % of control
dose: 4.0 mg/kg/injection, schedule: Q01DX009 (ip), vehicle: carboxymethylcellulose (CMC)
  T/C: 120 % of control
dose: 9.0 mg/kg/injection, schedule: Q01DX001 (ip), vehicle: carboxymethylcellulose (CMC)
  T/C: 164 % of control

## CC(c1ccccc1)S(=O)(=O)c1ccccc1 (centres undefined)
[1]
  T/C: 102 % of control
dose: 100.0 mg/kg/injection, schedule: Q01DX009 (ip), vehicle: saline
  T/C: 95 % of control
dose: 100.0 mg/kg/injection, schedule: Q04DX003 (ip), vehicle: saline
  T/C: 97 % of control
[2]
  T/C: 101 % of control
dose: 200.0 mg/kg/injection, schedule: Q01DX009 (ip), vehicle: saline
  T/C: 101 % of control
dose: 200.0 mg/kg/injection, schedule: Q04DX003 (ip), vehicle: saline
  T/C: 95 % of control
[3]
  T/C: 95 % of control
dose: 400.0 mg/kg/injection, schedule: Q01DX009 (ip), vehicle: saline
  T/C: 97 % of control
dose: 400.0 mg/kg/injection, schedule: Q04DX003 (ip), vehicle: saline
  T/C: 95 % of control

## C[S+](C)c1ccccc1C(C)(C)CC(=O)O
[1]
  T/C: 103 % of control
[2]
  T/C: 98 % of control
[3]
  T/C: 110 % of control

## CCc1nc2[nH]c(N)nc(=S)c2cc1C
dose: 100.0 mg/kg/injection, schedule: Q01DX Z (ip), vehicle: methylcellulose (MC)
  T/C: 95 % of control
dose: 200.0 mg/kg/injection, schedule: Q01DX Z (ip), vehicle: methylcellulose (MC)
  T/C: 95 % of control

## Cc1ncc(-c2ccc([N+](=O)[O-])cc2)o1
dose: 50.0 mg/kg/injection, schedule: Q04DX003 (ip), vehicle: Klucel (hydroxypropylcellulose) (HPC)
  T/C: 94 % of control
[14]
  T/C: 102 % of control
[15]
  T/C: 94 % of control

## CC1C=CC(C)C(C(=O)c2ccccc2)C1C(=O)c1ccccc1 (centres undefined)
[8]
  T/C: 93 % of control
[11]
  T/C: 106 % of control
[14]
  T/C: 89 % of control
[9]
  T/C: 94 % of control
[12]
  T/C: 97 % of control
[15]
  T/C: 88 % of control
[10]
  T/C: 92 % of control
[13]
  T/C: 93 % of control
[16]
  T/C: 88 % of control

## Clc1ccc(C=Nc2ccc3c(c2)Cc2ccccc2-3)cc1
[8]
  T/C: 90 % of control
[14]
  T/C: 96 % of control
[9]
  T/C: 93 % of control
[15]
  T/C: 102 % of control
[10]
  T/C: 92 % of control
[16]
  T/C: 91 % of control
